Results as given in paper PMC7232442, “Biofilm Eradication by Symmetrical Selenoesters for Food-Borne Pathogens” (Microorganisms, 2020).
≈ marks a conversion by molar mass, not a printed value. Entries after “also recorded” stand apart in the source; their conditions may differ.

Experiments:
S. aureus MRSA 272123 [1] = assay: MIC determination by microdilution method; type: cell-based; conditions: Staphylococcus aureus; S. aureus MRSA 272123; read-out: MIC
Experimental: (§1) The minimum inhibitory concentrations (MICs) of compounds were determined according to the Clinical and Laboratory Standard Institute guidelines (CLSI). MIC values of the compounds were determined by visual inspection. The solvent was also assayed to ensure there was no antibacterial effect and the concentration (1 v/v%) applied in the assays had no antibacterial activity. DMSO was used at subinhibitory concentration (1 v/v%) in the assays.

[2] = tested on: Staphylococcus aureus ATCC 25923; assay: MIC determination by microdilution method; type: cell-based; conditions: S. aureus ATCC 25923
Experimental: as §1

[3] = tested on: S. Typhimurium SE01 Wild-Type; assay: MIC determination by microdilution method; type: cell-based, Salmonella enterica serovar Typhimurium; conditions: Salmonella enterica; S. Typhimurium SE01 wild-type; read-out: MIC
Experimental: as §1

[4] = tested on: S. Typhimurium SE02 ΔacrB; assay: MIC determination by microdilution method; type: cell-based, Salmonella enterica serovar Typhimurium; conditions: Salmonella enterica
Experimental: as §1

[5] = tested on: S. Typhimurium SE03 ΔacrA; assay: MIC determination by microdilution method; type: cell-based, Salmonella enterica serovar Typhimurium; conditions: Salmonella enterica
Experimental: as §1

[6] = tested on: S. Typhimurium SE39 ΔtolC; assay: MIC determination by microdilution method; type: cell-based, Salmonella enterica serovar Typhimurium; conditions: Salmonella enterica
Experimental: as §1

[7] = tested on: S. Typhimurium SE01 Wild-Type; assay: Real-time ethidium bromide accumulation assay; type: cell-based, Salmonella enterica serovar Typhimurium; conditions: ½ MIC, minute 60
Experimental: (§2) The impact of compounds on EB accumulation was determined by the automated EB method using a CLARIOstar Plus plate reader (BMG Labtech, UK). Firstly, the bacterial strain was incubated until it reached an optical density (OD) of 0.6 at 600 nm. The culture was washed with phosphate buffered saline (PBS; pH 7.4) and centrifuged at 13,000× g for 3 min, the cell pellet was re-suspended in PBS. The compounds were added at ½ MIC concentration to PBS containing a non-toxic concentration of EB (1 µg/mL). Then, 50 μL of the EB solution containing the compound were transferred into 96-well black microtiter plate (Greiner Bio-One Hungary Kft, Hungary), and 50 μL of bacterial suspension (OD600 0.6) were added to the each well. Then, the plates were placed into the CLARIOstar plate reader, and the fluorescence was monitored at excitation and emission wavelengths of 530 nm and 600 nm every minute for one hour on a real-time basis. From the real-time data, the activity of the compounds, namely the relative fluorescence index (RFI) of the last time point (minute 60) of the EB accumulation assay, was calculated according to the following formula:RFI = (RFtreated − RFuntreated)/RFuntreated(2) where RFtreated is the relative fluorescence (RF) at the last time point of EB retention curve in the presence of an inhibitor, and RFuntreated is the RF at the last time point of the EB retention curve of the untreated control having the solvent control (DMSO).

[8] = tested on: S. Typhimurium SE02 ΔacrB; assay: Real-time ethidium bromide accumulation assay; type: cell-based, Salmonella enterica serovar Typhimurium; conditions: S. Typhimurium SE02 ΔacrB; ½ MIC; minute 60
Experimental: as §2

[9] = tested on: S. Typhimurium SE03 ΔacrA; assay: Real-time ethidium bromide accumulation assay; type: cell-based, Salmonella enterica serovar Typhimurium; conditions: S. Typhimurium SE03 ΔacrA; ½ MIC; minute 60
Experimental: as §2

[10] = tested on: S. Typhimurium SE39 ΔtolC; assay: Real-time ethidium bromide accumulation assay; type: cell-based, Salmonella enterica serovar Typhimurium; conditions: S. Typhimurium SE39 ΔtolC; ½ MIC; minute 60
Experimental: as §2

S. aureus ATCC 25923 [11] = assay: Real-time ethidium bromide accumulation assay; type: cell-based, Staphylococcus aureus; set-up: key to Relative Fluorescence Index (RFI): RFI = (RFtreated − RFuntreated)/RFuntreated at minute 60; conditions: for Relative Fluorescence Index (RFI): S. aureus ATCC 25923, ½ MIC, minute 60; for EPI activity (in words): reference (sensitive) S. aureus, 60 min
Experimental: as §2

S. aureus MRSA 272123 [12] = assay: Real-time ethidium bromide accumulation assay; type: cell-based, Staphylococcus aureus; conditions: for Relative Fluorescence Index (RFI): S. aureus MRSA 272123, ½ MIC, minute 60; for EPI activity (in words): resistant S. aureus MRSA, 60 min
Experimental: as §2

[13] = tested on: C. violaceum 026 sensor strain with AHL producer E. cloacae 31298 (violacein production); assay: Quorum sensing (QS) inhibition, parallel inoculation disk diffusion; type: cell-based, Chromobacterium violaceum; conditions: disc with 10 μL compound, starting concentration ½ MIC; 24–48 h
Experimental: The QS inhibitory effect of selenocompounds was examined on the AHL producer E. cloacae strain and C. violaceum sensor bacterial strain. These strains were inoculated in parallel. The QS inhibition was monitored by agar diffusion method on LB* agar plate as described previously. Filter paper discs (7.0 mm in diameter) were placed between the parallel inoculated strains and impregnated with 10 μL compounds. Starting concentration of the compounds was ½ MIC. The agar plates were incubated at room temperature (20 °C) for 24–48 h and the inhibition of violacein production was measured.

[14] = tested on: MRC-5 human embryonal lung fibroblast cells; assay: Cytotoxicity assay (MTT); type: cell-based; conditions: MRC-5 cells
Experimental: The adherent MRC-5 human embryonal lung fibroblast cells were cultured in 96-well flat-bottomed microtiter plates, using EMEM supplemented with 10% heat-inactivated fetal bovine serum. The density of the cells was adjusted to 1 × 10^4 cells in 100 μL per well, the cells were seeded overnight at 37 °C, 5% CO2, then the medium was removed from the plates containing the cells, and the dilutions of selenocompounds previously made in a separate plate were added to the cells in 200 μL.
The culture plates were incubated at 37 °C for 24 h; at the end of the incubation period, 20 μL of MTT (thiazolyl blue tetrazolium bromide, Sigma) solution (from a stock solution of 5 mg/mL) was added to each well. After incubation at 37 °C for 4 h, 100 μL of sodium dodecyl sulfate (SDS; Sigma) solution (10% in 0.01 M HCI) was added to each well and the plates were further incubated at 37 °C overnight. Cell growth was determined by measuring the optical density (OD) at 540/630 nm with Multiscan EX ELISA reader (Thermo Labsystems, Cheshire, WA, USA). Inhibition of the cell growth was determined according to the formula below:IC50 = 100 − [(ODsample − ODmedium control)/(ODcell control − ODmedium control)] × 100(1)
Results are expressed in terms of IC50, defined as the inhibitory dose that reduces the growth of the cells exposed to the tested compounds by 50%.

S. aureus ATCC 25923 [15] = assay: Resistance modulation assay (checkerboard) with TET or CIP; type: cell-based, Staphylococcus aureus
Experimental: (§3) The resistance modulation effect of compounds with ciprofloxacin (CIP) and tetracycline (TET) antibiotics were evaluated by the checkerboard method on S. aureus strains. Briefly, CIP or TET was diluted in a 96-well microtiter plate by two-fold serial dilution in MH broth and then the compounds were added at subinhibitory concentrations (½ MIC). In this assay, only the tested compounds with well-defined MIC values were tested. Finally, 10^−4 dilution of the overnight bacterial culture in MH was added to each well. The final volume was 200 µL in each well. The microtiter plates were incubated at 37 °C for 18 h. MIC values in the presence of the antibiotics alone and in combination with Se-compounds were determined by visual inspection.

S. aureus MRSA 272123 [16] = assay: as above; type: cell-based, Staphylococcus aureus; conditions: for Interaction with CIP: MRSA strain; for X-fold reduction of MIC of CIP: S. aureus MRSA 272123, compound at ½ MIC, with CIP
Experimental: as §3

S. aureus MRSA = assay: Biofilm formation using crystal violet; type: cell-based, Staphylococcus aureus
Experimental: (§4) The anti-biofilm effect of the tested compounds against S. aureus strains and wild-type S. Typhimurium SE01 was measured using crystal violet (CV; 0.1% (v/v)). This dye is used to detect the total biofilm biomass formed. Overnight cultures were diluted to OD of 0.1 at 600 nm in TSB medium. Then, the bacterial cultures were added to 96-well microtiter plates and the compounds were added at ½ MIC concentration. The final volume was 200 μL in each well. The microtiter plates were incubated at 30 °C for 48 h with gentle agitation (100 rpm). After the incubation period, TSB medium was discarded, and the plates were washed with tap water to remove unattached cells. Then 200 μL crystal violet was added to the wells and incubated for 15 min at room temperature. Then, CV was removed from the wells and the plates were washed again with tap water, and 200 μL of 70% ethanol was added to the wells. Finally, the biofilm formation was determined by measuring the OD at 600 nm using Multiscan EX ELISA plate reader (Thermo Labsystems, Cheshire, WA, USA). The anti-biofilm effect of compounds was expressed in the percentage (%) of decrease in biofilm formation.

[17] = tested on: reference S. aureus strain (ATCC 25923); assay: Biofilm formation using crystal violet; type: cell-based, Staphylococcus aureus
Experimental: as §4

[18] = Staphylococcus aureus, ATCC25923

| Structure (SMILES) | MIC (S. aureus MRSA 272123 [1]) [µM] | MIC [2] [µM] | MIC [2, 18] [µM] | MIC [3] [µM] | MIC [4] [µM] | MIC [5] [µM] | MIC [6] [µM] | Relative Fluorescence Index (RFI) [7] | Relative Fluorescence Index (RFI) [8] | Relative Fluorescence Index (RFI) [9] | Relative Fluorescence Index (RFI) [10] | Relative Fluorescence Index (RFI) (S. aureus ATCC 25923 [11]) | EPI activity (in words) (S. aureus ATCC 25923 [11]) | Relative Fluorescence Index (RFI) (S. aureus MRSA 272123 [12]) | EPI activity (in words) (S. aureus MRSA 272123 [12]) | QS zone of inhibition [13] [mm] | IC50 ([14]; Homo sapiens, MRC5, 24 h) [µM] | IC50 ([14]; 24 h) [µM] | Interaction with CIP (S. aureus MRSA 272123 [16]) | X-fold reduction of MIC of CIP (S. aureus MRSA 272123 [16]) [fold] | other results |
| --- | --- | --- | --- | --- | --- | --- | --- | --- | --- | --- | --- | --- | --- | --- | --- | --- | --- | --- | --- | --- | --- |
| COC(=O)C[Se]C(=O)c1ccc(C(=O)[Se]CC(=O)OC)cc1 [Se-E1] | 100 (≈ 43.6 µg/mL) | 12.5 (≈ 5.45 µg/mL) | 12.5 (≈ 5.45 µg/mL) | > 100 | > 100 | > 100 | > 100 | −0.10 | −0.03 | 0.03 | 0.15 | 0.98 | effective | 0.19 | effective | 41 | > 75 | 77.9 |  |  |  |
| COC(=O)C[Se]C(=O)c1cc(C(=O)[Se]CC(=O)OC)cc(C(=O)[Se]CC(=O)OC)c1 [Se-E3] | 100 (≈ 61.5 µg/mL) | 12.5 (≈ 7.69 µg/mL) | 12.5 (≈ 7.69 µg/mL) | > 100 | > 100 | > 100 | > 100 | 0.26 | 0.08 | 0.27 | 0.25 | 4.15 | most prominent EPI activity; also recorded: significantly effective pump inhibition | 0.47 | most prominent EPI activity; also recorded: significantly effective pump inhibition |  | > 75 | 76.6 | synergism | 2 | X-fold reduction of MIC of TET (S. aureus ATCC 25923 [15]; S. aureus ATCC 25923, compound at ½ MIC, with TET): 2 fold; Interaction with TET (S. aureus ATCC 25923 [15]; methicillin-susceptible S. aureus ATCC 25923): synergism; Anti-biofilm effect (in words) (S. aureus MRSA): significant biofilm inhibition; Anti-biofilm effect (in words) ([17]; sensitive (reference) S. aureus): significant biofilm inhibition |
| CC(=O)C[Se]C(=O)c1ccc(C(=O)[Se]CC(C)=O)cc1 [Se-K1] | 1.56 (≈ 0.631 µg/mL) | 0.39 (≈ 0.158 µg/mL) | 0.39 (≈ 0.158 µg/mL) | 50 (≈ 20.2 µg/mL) |  |  |  | −0.16 | 0.10 | 0.17 | 0.27 | 0.1 |  | −0.15 |  | 37 | 0.54 |  | synergism | 2 |  |
| CC(=O)C[Se]C(=O)c1cccc(C(=O)[Se]CC(C)=O)c1 [Se-K2] | 1.56 (≈ 0.631 µg/mL) | 0.39 (≈ 0.158 µg/mL) | 0.39 (≈ 0.158 µg/mL) | 50 (≈ 20.2 µg/mL) |  |  | 100 (≈ 40.4 µg/mL) | −0.04 | 0.13 | 0.20 | 0.26 | 0.11 |  | −0.07 |  | 40 | 1.34 |  |  |  | Anti-biofilm effect (in words) (S. aureus MRSA): promoted the biofilm formation; Biofilm inhibition ([17]; reference S. aureus, ½ MIC, 48 h): 30.3% |
